# Test system: RSV Long strain
# Experiment: Viral Cytopathic Effect (CPE) Assay
# Assay type: cell-based
# Settings: human respiratory syncytial virus, 144 h, cell viability after 6 days, Cell Counting kit-8
row,SMILES,EC50 [nM]
1,"CS(=O)(=O)CCCn1c(Cn2nc(S(C)(=O)=O)c3ccncc32)cc2cc(Cl)ccc21 [Example 9-2, 1-({5-Chloro-1-[3-(methylsulfonyl)propyl]-1H-indol-2-yl}methyl)-3-(methylsulfonyl)-1H-pyrazolo[3,4-c]pyridine]",8.12
2,"CS(=O)(=O)c1nn(Cc2nc3cc(Cl)ccc3n2[C@H]2CCN(CC(F)(F)F)C2)c2cnccc12 [Example 2-19, 1-({5-Chloro-1-[(3S)-1-(2,2,2-trifluoroethyl)pyrrolidin-3-yl]-1H-benzimidazol-2-yl}methyl)-3-(methylsulfonyl)-1H-pyrazolo[3,4-c]pyridine]",1170
3,"CS(=O)(=O)c1nn(Cc2nc3cc(Cl)ccc3n2[C@@H]2CCN(CCO)C2)c2cnccc12 [Example 6-7, 2-[(3R)-3-(5-Chloro-2-{[3-(methylsulfonyl)-1H-pyrazolo[3,4-c]pyridin-1-yl]methyl}-1H-benzimidazol-1-yl)pyrrolidin-1-yl]ethanol]",3.68
4,"CC(C)S(=O)(=O)c1nn(Cc2nc3cc(Cl)ccc3n2CCCS(C)(=O)=O)c2ccccc12 [Example 1-9, 1-({5-Chloro-1-[3-(methylsulfonyl)propyl]-1H-benzimidazol-2-yl}methyl)-3-(propan-2-ylsulfonyl)-1H-indazole]",74.4
5,"CS(=O)(=O)c1nn(Cc2nc3cc(Cl)ccc3n2C2CCOCC2)c2ccccc12 [Example 2-6, 1-{[5-Chloro-1-(tetrahydro-2H-pyran-4-yl)-1H-benzimidazol-2-yl]methyl}-3-(methylsulfonyl)-1H-indazole]",21.8
6,"CC(=O)N1CCC(n2c(Cn3nc(S(C)(=O)=O)c4ccccc43)nc3cc(Cl)ccc32)C1 (centres unmarked) [Example 6-2, 1-[3-(5-Chloro-2-{[3-(methylsulfonyl)-1H-indazol-1-yl]methyl}-1H-benzimidazol-1-yl)pyrrolidin-1-yl]ethanone]",8.75
7,"CS(=O)(=O)c1nn(Cc2nc3cc(Cl)ccc3n2CC2CCOC2)c2cnccc12 (centres unmarked) [Example 2-31, 1-{[5-Chloro-1-(tetrahydrofuran-3-ylmethyl)-1H-benzimidazol-2-yl]methyl}-3-(methylsulfonyl)-1H-pyrazolo[3,4-c]pyridine]",4.34
8,"CCS(=O)(=O)c1nn(Cc2nc3cc(Cl)ccc3n2CCCS(C)(=O)=O)c2ccccc12 [Example 1-10, 1-({5-Chloro-1-[3-(methylsulfonyl)propyl]-1H-benzimidazol-2-yl}methyl)-3-(ethylsulfonyl)-1H-indazole]",37.8
9,"CS(=O)(=O)c1nn(Cc2nc3cc(Cl)ccc3n2[C@H]2C[C@H](O)C2)c2cnccc12 [Example 2-32, trans-3-(5-Chloro-2-{[3-(methylsulfonyl)-1H-pyrazolo[3,4-c]pyridin-1-yl]methyl}-1H-benzimidazol-1-yl)cyclobutanol]",3.32
10,"CS(=O)(=O)c1nn(Cc2nc3cc(Cl)ccc3n2CCOCCO)c2cnccc12 [Example 2-35, 2-[2-(5-chloro-2-{[3-(methylsulfonyl)-1H-pyrazolo[3,4-c]pyridin-1-yl]methyl}-1H-benzimidazol-1-yl)ethoxy]ethanol]",15
11,"CS(=O)(=O)c1nn(Cc2nc3cc(Cl)ccc3n2C2COC2)c2ccccc12 [Example 2-3, 1-{[5-Chloro-1-(oxetan-3-yl)-1H-benzimidazol-2-yl]methyl}-3-(methylsulfonyl)-1H-indazole]",21.8
12,"C[C@@]1(O)CC[C@H](n2c(Cn3nc(S(C)(=O)=O)c4ccncc43)nc3cc(Cl)ccc32)C1 (relative stereo) [Example 2-43, cis-3-(5-chloro-2-{[3-(methylsulfonyl)-1H-pyrazolo[3,4-c]pyridin-1-yl]methyl}-1H-benzimidazol-1-yl)-1-methylcyclopentanol]",17.9
13,"CS(=O)(=O)c1nn(Cc2nc3cc(Cl)ccc3n2[C@@H]2CCN(S(C)(=O)=O)C2)c2cnccc12 [Example 6-6, 1-({5-Chloro-1-[(3R)-1-(methylsulfonyl)pyrrolidin-3-yl]-1H-benzimidazol-2-yl}methyl)-3-(methylsulfonyl)-1H-pyrazolo[3,4-c]pyridine]",3
14,"CS(=O)(=O)c1nn(Cc2nc3cc(Cl)ccc3n2[C@H]2C[C@](C)(O)C2)c2cnccc12 [Example 2-26, trans-3-(5-Chloro-2-{[3-(methylsulfonyl)-1H-pyrazolo[3,4-c]pyridin-1-yl]methyl}-1H-benzimidazol-1-yl)-1-methylcyclobutanol]",7
15,"CS(=O)(=O)c1nn(Cc2nc3cc(Cl)ccc3n2C2CCN(C(=O)CO)C2)c2cnccc12 (centres unmarked) [Example 2-17, 1-[3-(5-Chloro-2-{[3-(methylsulfonyl)-1H-pyrazolo[3,4-c]pyridin-1-yl]methyl}-1H-benzimidazol-1-yl)pyrrolidin-1-yl]-2-hydroxyethanone]",10.9
16,"CS(=O)(=O)c1nn(Cc2nc3cc(Cl)ccc3n2CCCO)c2cnccc12 [Example 2-27, 3-(5-Chloro-2-{[3-(methylsulfonyl)-1H-pyrazolo[3,4-c]pyridin-1-yl]methyl}-1H-benzimidazol-1-yl)propan-1-ol]",7.53

row,SMILES,EC50 [nM]
1,"CC(C)S(=O)(=O)c1nn(Cc2nc3cc(Cl)ccc3n2CCS(C)(=O)=O)c2ccccc12 [Example 1-13, 1-({5-Chloro-1-[2-(methylsulfonyl)ethyl]-1H-benzimidazol-2-yl}methyl)-3-(propan-2-ylsulfonyl)-1H-indazole]",312
2,"CS(=O)(=O)c1nn(Cc2nc3cc(Cl)ccc3n2C2CCS(=O)(=O)C2)c2cnccc12 (stereo in doubt) [Example 2-1, 1-({5-Chloro-1-[(3R)-1,1-dioxidotetrahydrothiophen-3-yl]-1H-benzimidazol-2-yl}methyl)-3-(methylsulfonyl)-1H-pyrazolo[3,4-c]pyridine]",8.99
3,"CS(=O)(=O)CCCn1c(Cn2cc(S(C)(=O)=O)c3ccncc32)nc2cc(Cl)ccc21 [Example 1-4, 5-Chloro-1-[3-(methylsulfonyl)propyl]-2-{[3-(methylsulfonyl)-1H-pyrrolo[2,3-c]pyridin-1-yl]methyl}-1H-benzimidazole]",82
4,"CS(=O)(=O)c1nn(Cc2nc3cc(Cl)ccc3n2C2CCNC2)c2cnccc12 (centres unmarked) [Example 2-13, 1-{[5-Chloro-1-(pyrrolidin-3-yl)-1H-benzimidazol-2-yl]methyl}-3-(methylsulfonyl)-1H-pyrazolo[3,4-c]pyridine]",44.2
5,"CC(C)C(=O)N1CC[C@@H](n2c(Cn3nc(S(C)(=O)=O)c4ccncc43)nc3cc(Cl)ccc32)C1 [Example 6-4, 1-[(3R)-3-(5-Chloro-2-{[3-(methylsulfonyl)-1H-pyrazolo[3,4-c]pyridin-1-yl]methyl}-1H-benzimidazol-1-yl)pyrrolidin-1-yl]-2-methylpropan-1-one]",4
6,"CS(=O)(=O)c1nn(Cc2nc3cc(Cl)ccc3n2-c2ccc(Cl)nc2)c2ccccc12 [Example 3-5, 1-{[5-Chloro-1-(6-chloropyridin-3-yl)-1H-benzimidazol-2-yl]methyl}-3-(methylsulfonyl)-1H-indazole]",18.1
7,"CS(=O)(=O)c1nn(Cc2nc3cc(Cl)cc(F)c3n2[C@@H]2CCS(=O)(=O)C2)c2cnccc12 [Example 12, 1-({5-chloro-1-[(3R)-1,1-dioxidotetrahydrothiophen-3-yl]-7-fluoro-1H-benzimidazol-2-yl}methyl)-3-(methylsulfonyl)-1H-pyrazolo[3,4-c]pyridine]",2
8,"CS(=O)(=O)c1nn(Cc2nc3cc(Cl)cc(F)c3n2CCCC(F)(F)F)c2cnccc12 [Example 5-2, 1-{[5-Chloro-7-fluoro-1-(4,4,4-trifluorobutyl)-1H-benzimidazol-2-yl]methyl}-3-(methylsulfonyl)-1H-pyrazolo[3,4-c]pyridine]",7
9,"CC(C)S(=O)(=O)c1cn(Cc2nc3cc(Cl)ccc3n2CCCS(C)(=O)=O)c2ccccc12 [Example 1-6, 5-Chloro-1-[3-(methylsulfonyl)propyl]-2-{[3-(propan-2-ylsulfonyl)-1H-indol-1-yl]methyl}-1H-benzimidazole]",119
10,"CC(C)(O)C(=O)N1CC[C@@H](n2c(Cn3nc(S(C)(=O)=O)c4ccncc43)nc3cc(Cl)ccc32)C1 [Example 6-5, 1-[(3R)-3-(5-Chloro-2-{[3-(methylsulfonyl)-1H-pyrazolo[3,4-c]pyridin-1-yl]methyl}-1H-benzimidazol-1-yl)pyrrolidin-1-yl]-2-hydroxy-2-methylpropan-1-one]",13
11,"CC(C)(O)CCCn1c(Cn2nc(S(C)(=O)=O)c3ccncc32)nc2cc(Cl)ccc21 [Example 2-38, 5-(5-chloro-2-{[3-(methylsulfonyl)-1H-pyrazolo[3,4-c]pyridin-1-yl]methyl}-1H-benzimidazol-1-yl)-2-methylpentan-2-ol]",8
12,"CS(=O)(=O)c1nn(Cc2nc3cc(Cl)ccc3n2C2CC3(COC3)C2)c2cnccc12 [Example 2-24, 1-{[5-Chloro-1-(2-oxaspiro[3.3]hept-6-yl)-1H-benzimidazol-2-yl]methyl}-3-(methylsulfonyl)-1H-pyrazolo[3,4-c]pyridine]",8.66
13,"CS(=O)(=O)c1nn(Cc2nc3cc(Cl)ccc3n2-c2ccc(F)nc2)c2cnccc12 [Example 3-2, 1-{[5-Chloro-1-(6-fluoropyridin-3-yl)-1H-benzimidazol-2-yl]methyl}-3-(methylsulfonyl)-1H-pyrazolo[3,4-c]pyridine]",18.7
14,"CS(=O)(=O)c1nn(Cc2nc3cc(Cl)ccc3n2[C@H]2C[C@@](O)(CO)C2)c2cnccc12 [Example 2-46, trans-3-(5-chloro-2-{[3-(methylsulfonyl)-1H-pyrazolo[3,4-c]pyridin-1-yl]methyl}-1H-benzimidazol-1-yl)-1-(hydroxymethyl)cyclobutanol]",7.2
15,"CS(=O)(=O)c1nn(Cc2nc3cc(Cl)ccc3n2CCC(O)C(F)(F)F)c2cnccc12 (centres unmarked) [Example 2-42, 4-(5-chloro-2-{[3-(methylsulfonyl)-1H-pyrazolo[3,4-c]pyridin-1-yl]methyl}-1H-benzimidazol-1-yl)-1,1,1-trifluorobutan-2-ol]",1.6
16,"CS(=O)(=O)CCn1c(Cn2nc(S(C)(=O)=O)c3ccncc32)cc2cc(Cl)cc(F)c21 [Example 9-3, 1-({5-Chloro-7-fluoro-1-[2-(methylsulfonyl)ethyl]-1H-indol-2-yl}methyl)-3-(methylsulfonyl)-1H-pyrazolo[3,4-c]pyridine]",7.21

# Source: patent US9206191B2, “Indazoles for the treatment and prophylaxis of respiratory syncytial virus infection” (Hoffmann-La Roche Inc., priority 2012, dated 2015)
